In brackets after ≈: the same amount, converted by molar mass. Marks after values point to notes of the source that are not given here.
What was measured:
[1] = system: PA01 Pseudomonas aeruginosa ATCC 15692; assay: MIC assay, two-fold antibiotic dilutions in CAMHB with alginate oligomer, no visible growth; assay type: cell-based
[2] = system: Pseudomonas aeruginosa ATCC 39324, mucoid type strain (R79); assay: MIC assay, CAMHB with alginate oligomer, no visible growth; assay type: cell-based
[3] = system: Pseudomonas aeruginosa CFA 24-1, clinical mucoid strain (R80); assay: as above; assay type: cell-based
[4] = system: Pseudomonas aeruginosa MDR R22 from China (V1); assay: as above; assay type: cell-based; conditions: Pseudomonas aeruginosa, Table 1, V1 MDR R22 PA
From the text: (§1) The study described in Example 1 was repeated with the following strains of bacteria and antibiotics as detailed in Tables 4, 5 and 6.

[5] = system: Pseudomonas aeruginosa MDR 301 from Poland (V2); assay: as above; assay type: cell-based; conditions: Pseudomonas aeruginosa, Table 1, V2 MDR 301 PA
[6] = system: Klebsiella pneumoniae KP05 506 from India (V3); assay: as above; assay type: cell-based; conditions: for MIC: Klebsiella pneumoniae, Table 1, V3 KP05 506
[7] = system: Acinetobacter baumannii MDR ACB from Libya (V4); assay: as above; assay type: cell-based
From the text: as §1
The study described in Example 1 was repeated with the following strains of Acinetobacter baumannii, antibiotics and M-block alginate oligomer in place of OligoG CF-5/20 as detailed in Table 7. The M-block oligomer is 100% M with a DPn of 15 to 18,

[8] = system: V9 (Egypt) Acinetobacter baumannii; assay: as above; assay type: cell-based
[9] = system: V10 (Egypt) Acinetobacter lwoffii; assay: as above; assay type: cell-based
V11 5702 (Wales) E. coli = assay: as above; assay type: cell-based
[10] = system: V12 5725 (Wales) Klebsiella pneumoniae; assay: as above; assay type: cell-based
V22 6056 Acinetobacter = assay: as above; assay type: cell-based, Acinetobacter lwoffii
[11] = system: V23 1322 Burkholderia cepacia; assay: as above; assay type: cell-based; conditions: Table 6, V23
MDR Pseudomonas strains = assay: MIC assay of Example 1, summary over the MDR Pseudomonas strains; assay type: cell-based, Pseudomonas aeruginosa
[12] = system: MDR strains of Pseudomonas aeruginosa, Klebsiella pneumoniae, Burkholderia cepacia, Acinetobacter lwoffii, Acinetobacter baumannii and E. coli; assay: MIC assay of Example 2, summary over the strains of Tables 4, 5 and 6; assay type: cell-based; conditions: Example 2, Tables 4, 5 and 6

CC1(C)C[C@@H]1C(=O)N/C(=C\CCCCSC[C@H](N)C(=O)O)C(=O)O [Primaxin, Imipenem/cilastatin]
MIC ([1]; Pseudomonas aeruginosa, ATCC15692): < 1 µg/mL
MIC ([1]; Table 1, PA01, OligoCF-5/20 +2% G): <1 µg/mL
MIC ([1]; Table 1, PA01, OligoCF-5/20 +6% G): <1 µg/mL
MIC ([1]; Table 1, PA01, OligoCF-5/20 +10% G): <1 µg/mL
MIC ([2]; Pseudomonas aeruginosa, ATCC39324): < 1 µg/mL
MIC ([2]; Table 1, R79, OligoCF-5/20 +2% G): <1 µg/mL
MIC ([2]; Table 1, R79, OligoCF-5/20 +6% G): <1 µg/mL
MIC ([2]; Table 1, R79, OligoCF-5/20 +10% G): <1 µg/mL
MIC ([3]; Pseudomonas aeruginosa): < 1 µg/mL
MIC ([3]; Table 1, R80, OligoCF-5/20 +2% G): <1 µg/mL
MIC ([3]; Table 1, R80, OligoCF-5/20 +6% G): <1 µg/mL
MIC ([3]; Table 1, R80, OligoCF-5/20 +10% G): <1 µg/mL
MIC ([4]; OligoCF-5/20 0G): 128 µg/mL (≈ 357 µM)
MIC ([4]; OligoCF-5/20 +2% G): 128 µg/mL (≈ 357 µM)
MIC ([4]; OligoCF-5/20 +6% G): 64 µg/mL (≈ 179 µM)
MIC ([4]; OligoCF-5/20 +10% G): 32 µg/mL (≈ 89.3 µM)
MIC ([5]; OligoCF-5/20 0G): 512 µg/mL (≈ 1430 µM)
MIC ([5]; OligoCF-5/20 +2% G): 256 µg/mL (≈ 714 µM)
MIC ([5]; OligoCF-5/20 +6% G): 256 µg/mL (≈ 714 µM)
MIC ([5]; OligoCF-5/20 +10% G): 128 µg/mL (≈ 357 µM)
effectiveness in conjunction with alginate oligomers ([6]; Example 1, KP05 506): inconclusive
MIC ([6]; OligoCF-5/20 0G): 32 µg/mL (≈ 89.3 µM)
MIC ([6]; OligoCF-5/20 +2% G): 64 µg/mL (≈ 179 µM)
MIC ([6]; OligoCF-5/20 +6% G): 64 µg/mL (≈ 179 µM)
MIC ([6]; OligoCF-5/20 +10% G): 64 µg/mL (≈ 179 µM)
MIC ([7]; Acinetobacter baumannii): < 1 µg/mL
MIC ([7]; Table 1, V4 ACB (Libya), OligoCF-5/20 +2% G): <1 µg/mL
MIC ([7]; Table 1, V4 ACB (Libya), OligoCF-5/20 +6% G): <1 µg/mL
MIC ([7]; Table 1, V4 ACB (Libya), OligoCF-5/20 +10% G): <1 µg/mL
MIC ([8]; Acinetobacter baumannii): 1 µg/mL (≈ 2.79 µM)
MIC ([8]; Table 5, V9 MDR Acin. baum, OligoCF-5/20 +2% G): 2 µg/mL (≈ 5.58 µM)
MIC ([8]; Table 5, V9 MDR Acin. baum, OligoCF-5/20 +6% G): <0.5^† μg/ml
MIC ([8]; Table 5, V9 MDR Acin. baum, OligoCF-5/20 +10% G): <0.5^† μg/ml
MIC ([9]; Acinetobacter lwoffii): < 0.5 µg/mL
MIC ([9]; Table 5, V10 MDR Acin. lwoff, OligoCF-5/20 +2% G): <0.5 µg/mL
MIC ([9]; Table 5, V10 MDR Acin. lwoff, OligoCF-5/20 +6% G): <0.5 µg/mL
MIC ([9]; Table 5, V10 MDR Acin. lwoff, OligoCF-5/20 +10% G): <0.5 µg/mL
MIC (V11 5702 (Wales) E. coli; Escherichia coli): < 0.5 µg/mL
MIC (V11 5702 (Wales) E. coli; Table 5, V11 MDR E.coli, OligoCF-5/20 +2% G): <0.5 µg/mL
MIC (V11 5702 (Wales) E. coli; Table 5, V11 MDR E.coli, OligoCF-5/20 +6% G): <0.5 µg/mL
MIC (V11 5702 (Wales) E. coli; Table 5, V11 MDR E.coli, OligoCF-5/20 +10% G): <0.5 µg/mL
MIC ([10]; Klebsiella pneumoniae): < 0.5 µg/mL
MIC ([10]; Table 5, V12 MDR Kleb pneu, OligoCF-5/20 +2% G): <0.5 µg/mL
MIC ([10]; Table 5, V12 MDR Kleb pneu, OligoCF-5/20 +6% G): <0.5 µg/mL
MIC ([10]; Table 5, V12 MDR Kleb pneu, OligoCF-5/20 +10% G): <0.5 µg/mL
MIC (V22 6056 Acinetobacter; Acinetobacter): 8 µg/mL (≈ 22.3 µM)
MIC (V22 6056 Acinetobacter; Table 5, V22 MDR Acin. lwoff, OligoCF-5/20 +2% G): 8 µg/mL (≈ 22.3 µM)
MIC (V22 6056 Acinetobacter; Table 5, V22 MDR Acin. lwoff, OligoCF-5/20 +6% G): 8 µg/mL (≈ 22.3 µM)
MIC (V22 6056 Acinetobacter; Table 5, V22 MDR Acin. lwoff, OligoCF-5/20 +10% G): 4^† μg/ml
MIC ([11]; Burkholderia cepacia, Experiment 1 (18-03-10), OligoCF-5/20 0G): 128 µg/mL (≈ 357 µM)
MIC ([11]; Burkholderia cepacia, Experiment 2 (18-03-10), OligoCF-5/20 0G): 256 µg/mL (≈ 714 µM)
MIC ([11]; Burkholderia cepacia, Experiment 3 (19-03-10), OligoCF-5/20 0G): 256 µg/mL (≈ 714 µM)
MIC ([11]; Experiment 1 (18-03-10), OligoCF-5/20 +2% G): 128 µg/mL (≈ 357 µM)
MIC ([11]; Experiment 1 (18-03-10), OligoCF-5/20 +6% G): 64^† μg/ml
MIC ([11]; Experiment 1 (18-03-10), OligoCF-5/20 +10% G): 32^† μg/ml
MIC ([11]; Experiment 2 (18-03-10), OligoCF-5/20 +2% G): 128^† μg/ml
MIC ([11]; Experiment 2 (18-03-10), OligoCF-5/20 +6% G): 128^† μg/ml
MIC ([11]; Experiment 2 (18-03-10), OligoCF-5/20 +10% G): 64^† μg/ml
MIC ([11]; Experiment 3 (19-03-10), OligoCF-5/20 +2% G): 256 µg/mL (≈ 714 µM)
MIC ([11]; Experiment 3 (19-03-10), OligoCF-5/20 +6% G): 256 µg/mL (≈ 714 µM)
MIC ([11]; Experiment 3 (19-03-10), OligoCF-5/20 +10% G): 128^† μg/ml
effectiveness when used in combination with the alginate oligomers (MDR Pseudomonas strains): more effective
change of MIC with increasing amounts of OligoG CF-5/20 [12]: decreasing MICs
